Results as given in patent US11844795B2, “Combination therapy for cancer treatment” (Ipsen Biopharm Ltd., priority 2015, dated 2023).
Read-outs that look alike come from different tables or passages of the source.

Experiments:
HT-29 = assay: In vitro SN-38 effect on cell line (GI50); format: cell-based; conditions: HT-29, in vitro
[1] = test system: C33A cervical cancer xenograft; assay: C33A cervical cancer xenograft model; conditions: liver, spleen, colon, plasma versus tumors
HCC1806 = assay: Cell survival (CellTiter-Glo) after SN-38 and/or PARP inhibitor; format: cell-based; conditions: Exp. 1, single agent
Experimental: (§1) Cells were plated at 1000 cells/well and then incubated for 24 hours. […] The plates were then allowed to incubate for 72 hours period. After the 72 hour incubation period the media was removed and cell viability was determined using the CellTiter-Glo® cell viability assay (Promega, Madison Wis.) according to the product instructions.

SKBR3 = assay: as above; format: cell-based; conditions: Exp. 4, single agent
Experimental: as §1

HCC38 = assay: as above; format: cell-based; conditions: for IC50: Homo sapiens
Experimental: as §1

HCC70 = assay: as above; format: cell-based; conditions: Exp. 2, single agent
Experimental: as §1

BT20 = assay: as above; format: cell-based; conditions: for IC50: Homo sapiens
Experimental: as §1

SUM149PT = assay: as above; format: cell-based; conditions: for IC50: Homo sapiens
Experimental: as §1

HCC1187 = assay: as above; format: cell-based; conditions: for IC50 log10 (μM) / Maximum Kill Percent: HCC1187, single agent; for IC50: Homo sapiens, HCC1187, read-out: IC50 log10 (μM) (converted)
Experimental: as §1

HCC1954 = assay: as above; format: cell-based; conditions: for IC50: Homo sapiens
Experimental: as §1

SUM159PT = assay: as above; format: cell-based; conditions: for IC50: Homo sapiens, SUM-159-PT
Experimental: as §1

BT549 = assay: as above; format: cell-based; conditions: for IC50: Homo sapiens
Experimental: as §1

cancer cells = assay: Active range based on XTC008
human plasma proteins = conditions: cited from earlier work
[2] = test system: HT-29 colorectal cancer (CRC) tumor xenograft; assay: Tumor SN-38 and tumor response in HT-29 xenograft-bearing mice; format: in vivo
Experimental: The duration of tumor exposure to the topoisomerase 1 inhibitor SN-38 above a threshold minimum concentration (e.g., 120 nM) correlated with antitumor activity of the liposomal irinotecan. […] For example, FIG. 13B depicts tumor content of SN-38 in multiple murine cervical cancer models. […] Levels of SN-38 of 120 nM were identified as the SN-38 tumor concentration required to yield tumor response.

PAR = conditions: Table 2B, unit inferred; cited from earlier work
PARG = PARG (Homo sapiens, UniProt Q86W56); conditions: cited from earlier work
[3] = test system: small cell lung cancer (SCLC), pancreatic cancer and breast cancer cell lines; assay: Growth inhibition, SN-38 with PARP inhibitors; format: cell-based; conditions: 2 nM SN-38
[4] = test system: NCI-H1048 small cell lung cancer cells; assay: % cell number over time, SN-38 with PARP inhibitors; format: cell-based; conditions: SN-38 at 2 nM; NCI-H1048 SCLC cells
[5] = test system: DMS-114 small cell lung cancer cells; assay: as above; format: cell-based; conditions: SN-38 at 2 nM; DMS-114 SCLC cells
[6] = test system: CFPAC-1 pancreatic cancer cells; assay: as above; format: cell-based; conditions: SN-38 at 2 nM
tankyrase-1 = tankyrase-1 (Homo sapiens, UniProt O95271); conditions: cell-free assays; cited from earlier work
[7] = BT-20, read-out: IC50 log10 (μM) (converted)
[8] = read-out: IC50 log10 (μM) (converted)

Chain of tankyrase-1 (O95271 whole entry, species assumed): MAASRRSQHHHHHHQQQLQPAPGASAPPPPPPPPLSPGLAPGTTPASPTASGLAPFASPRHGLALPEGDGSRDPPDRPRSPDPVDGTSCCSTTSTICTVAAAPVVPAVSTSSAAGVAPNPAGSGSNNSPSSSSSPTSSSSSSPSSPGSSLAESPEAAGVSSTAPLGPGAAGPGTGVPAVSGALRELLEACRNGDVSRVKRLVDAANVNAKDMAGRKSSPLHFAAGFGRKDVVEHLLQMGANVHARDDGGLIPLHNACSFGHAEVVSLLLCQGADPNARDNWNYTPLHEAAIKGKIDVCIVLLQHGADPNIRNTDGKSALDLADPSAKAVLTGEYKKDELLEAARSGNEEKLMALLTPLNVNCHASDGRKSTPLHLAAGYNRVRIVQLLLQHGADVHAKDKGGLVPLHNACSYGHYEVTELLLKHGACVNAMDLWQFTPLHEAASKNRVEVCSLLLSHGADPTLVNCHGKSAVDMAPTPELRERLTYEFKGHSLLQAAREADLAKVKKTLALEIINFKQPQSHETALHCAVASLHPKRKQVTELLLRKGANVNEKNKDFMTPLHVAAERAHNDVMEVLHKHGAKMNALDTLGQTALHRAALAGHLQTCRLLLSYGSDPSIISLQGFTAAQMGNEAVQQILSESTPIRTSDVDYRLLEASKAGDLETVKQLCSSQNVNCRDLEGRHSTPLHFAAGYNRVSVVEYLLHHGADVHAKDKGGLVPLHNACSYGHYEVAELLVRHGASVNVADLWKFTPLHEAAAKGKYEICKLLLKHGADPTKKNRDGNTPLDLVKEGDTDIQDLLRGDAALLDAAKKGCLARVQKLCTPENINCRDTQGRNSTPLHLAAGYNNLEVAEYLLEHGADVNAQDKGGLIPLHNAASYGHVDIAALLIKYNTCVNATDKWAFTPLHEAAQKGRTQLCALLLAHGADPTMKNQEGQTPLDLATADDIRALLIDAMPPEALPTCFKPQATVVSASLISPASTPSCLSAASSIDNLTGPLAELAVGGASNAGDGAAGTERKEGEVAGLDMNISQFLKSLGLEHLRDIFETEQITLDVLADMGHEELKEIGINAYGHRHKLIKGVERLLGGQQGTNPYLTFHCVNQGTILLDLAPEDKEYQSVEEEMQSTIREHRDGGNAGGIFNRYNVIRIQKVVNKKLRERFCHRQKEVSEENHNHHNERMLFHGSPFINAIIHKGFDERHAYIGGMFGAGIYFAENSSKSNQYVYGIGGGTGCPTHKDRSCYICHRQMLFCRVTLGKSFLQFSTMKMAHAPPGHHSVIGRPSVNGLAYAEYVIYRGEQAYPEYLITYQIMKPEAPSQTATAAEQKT
Chain of PARG (Q86W56 whole entry, species assumed): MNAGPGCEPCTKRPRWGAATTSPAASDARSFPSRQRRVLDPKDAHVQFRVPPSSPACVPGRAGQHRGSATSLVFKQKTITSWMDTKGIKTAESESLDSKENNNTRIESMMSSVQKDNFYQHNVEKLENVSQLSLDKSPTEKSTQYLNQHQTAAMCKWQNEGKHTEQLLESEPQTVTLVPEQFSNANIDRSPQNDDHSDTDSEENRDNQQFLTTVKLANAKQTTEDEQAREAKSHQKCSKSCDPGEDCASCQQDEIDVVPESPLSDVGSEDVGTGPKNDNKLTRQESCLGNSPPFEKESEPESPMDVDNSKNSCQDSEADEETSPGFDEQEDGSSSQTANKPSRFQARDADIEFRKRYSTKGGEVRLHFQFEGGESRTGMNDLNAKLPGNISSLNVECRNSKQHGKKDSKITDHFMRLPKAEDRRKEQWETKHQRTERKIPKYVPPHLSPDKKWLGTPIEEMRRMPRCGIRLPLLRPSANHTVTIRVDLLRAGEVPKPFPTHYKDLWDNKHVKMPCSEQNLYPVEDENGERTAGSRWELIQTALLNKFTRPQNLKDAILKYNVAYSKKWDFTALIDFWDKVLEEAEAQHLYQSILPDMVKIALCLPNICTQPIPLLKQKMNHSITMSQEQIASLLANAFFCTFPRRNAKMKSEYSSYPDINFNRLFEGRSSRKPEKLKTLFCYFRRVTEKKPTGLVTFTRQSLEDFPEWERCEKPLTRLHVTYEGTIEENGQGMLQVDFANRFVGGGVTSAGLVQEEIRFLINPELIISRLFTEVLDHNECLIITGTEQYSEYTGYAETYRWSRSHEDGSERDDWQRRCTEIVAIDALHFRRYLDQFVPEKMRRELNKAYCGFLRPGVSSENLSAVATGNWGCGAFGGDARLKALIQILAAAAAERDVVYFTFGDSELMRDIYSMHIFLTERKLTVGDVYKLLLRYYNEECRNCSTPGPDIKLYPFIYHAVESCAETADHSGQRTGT

What does the source list for CCc1c2c(nc3ccc(O)cc13)-c1cc3c(c(=O)n1C2)COC(=O)[C@]3(O)CC [SN-38]?
GI50 (HT-29): ~0.06 µM; Estimated tumor range (Estimated tumor range; (398)): 0.003 to 0.163 µM; Estimated tumor range (Estimated tumor range; IRI): IRI < 200 nM; differential tissue levels at 24 and 72 hours [1]: cleared faster from the liver, spleen, colon, and plasma, than from tumors; IC50 log10 (μM) (HCC1806): −2.08 log10 (μM); Maximum Kill Percent (HCC1806): 93%; IC50 log10 (μM) (SKBR3): −1.38 log10 (μM); Maximum Kill Percent (SKBR3): 88%; IC50 log10 (μM) (HCC38; HCC38, Exp. 1, single agent): −2.80 log10 (μM); Maximum Kill Percent (HCC38; HCC38, Exp. 1, single agent): 96%; IC50 log10 (μM) (HCC38; HCC38, Exp. 3, single agent): −2.89 log10 (μM); Maximum Kill Percent (HCC38; HCC38, Exp. 3, single agent): 92%; IC50 log10 (μM) (HCC38; HCC38, Exp. 4, single agent): −2.75 log10 (μM); Maximum Kill Percent (HCC38; HCC38, Exp. 4, single agent): 92%; IC50 log10 (μM) (HCC70): −0.07 log10 (μM); Maximum Kill Percent (HCC70): 97%; IC50 log10 (μM) (BT20; BT20, Exp. 1, single agent): −0.18 log10 (μM); Maximum Kill Percent (BT20; BT20, Exp. 1, single agent): 100%; IC50 log10 (μM) (BT20; BT20, Exp. 2, single agent): −0.69 log10 (μM); Maximum Kill Percent (BT20; BT20, Exp. 2, single agent): 100%; IC50 log10 (μM) (BT20; BT20, Exp. 3, single agent): −0.37 log10 (μM); Maximum Kill Percent (BT20; BT20, Exp. 3, single agent): 100%; IC50 log10 (μM) (BT20; BT20, Exp. 4, single agent): −0.24 log10 (μM); Maximum Kill Percent (BT20; BT20, Exp. 4, single agent): 100%; IC50 log10 (μM) (SUM149PT; Exp. 2, single agent): 0.24 log10 (μM); Maximum Kill Percent (SUM149PT; Exp. 2, single agent): 96%; IC50 log10 (μM) (SUM149PT; Exp. 3, single agent): 0.27 log10 (μM); Maximum Kill Percent (SUM149PT; Exp. 3, single agent): 95%; IC50 log10 (μM) (HCC1187; Exp. 1): −0.68 log10 (μM); Maximum Kill Percent (HCC1187; Exp. 1): 90%; IC50 log10 (μM) (HCC1187; Exp. 2): −0.64 log10 (μM); Maximum Kill Percent (HCC1187; Exp. 2): 100%; IC50 log10 (μM) (HCC1187; Exp. 4): −0.98 log10 (μM); Maximum Kill Percent (HCC1187; Exp. 4): 88%; IC50 log10 (μM) (HCC1954; HCC1954, Exp. 3, single agent): −0.97 log10 (μM); Maximum Kill Percent (HCC1954; HCC1954, Exp. 3, single agent): 94%; IC50 log10 (μM) (HCC1954; HCC1954, Exp. 4, single agent): −0.65 log10 (μM); Maximum Kill Percent (HCC1954; HCC1954, Exp. 4, single agent): 100%; IC50 log10 (μM) (SUM159PT; SUM159PT, Exp. 1, single agent): −2.35 log10 (μM); Maximum Kill Percent (SUM159PT; SUM159PT, Exp. 1, single agent): 97%; IC50 log10 (μM) (SUM159PT; SUM159PT, Exp. 2, single agent): −2.39 log10 (μM); Maximum Kill Percent (SUM159PT; SUM159PT, Exp. 2, single agent): 97%; IC50 log10 (μM) (SUM159PT; SUM159PT, Exp. 3, single agent): −2.66 log10 (μM); Maximum Kill Percent (SUM159PT; SUM159PT, Exp. 3, single agent): 99%; IC50 log10 (μM) (SUM159PT; SUM159PT, Exp. 4, single agent): −2.33 log10 (μM); Maximum Kill Percent (SUM159PT; SUM159PT, Exp. 4, single agent): 96%; IC50 log10 (μM) (BT549; BT549, Exp. 1, single agent): −0.10 log10 (μM); Maximum Kill Percent (BT549; BT549, Exp. 1, single agent): 95%; IC50 log10 (μM) (BT549; BT549, Exp. 2, single agent): −0.04 log10 (μM); Maximum Kill Percent (BT549; BT549, Exp. 2, single agent): 93%; IC50 log10 (μM) (BT549; BT549, Exp. 3, single agent): −0.05 log10 (μM); Maximum Kill Percent (BT549; BT549, Exp. 3, single agent): 94%; Active Range based on XTC008 (cancer cells): 1 to 50 nM; plasma protein binding (human plasma proteins): approximately 95%; SN-38 tumor concentration required to yield tumor response [2]: 120 nM

With Cn1ncnc1[C@H]1c2n[nH]c(=O)c3cc(F)cc(c23)N[C@@H]1c1ccc(F)cc1 [Talazoparib] as the compound, how does the “Maximum Kill Percent” value (HCC38; HCC38, Exp. 4, single agent) read?
The value was 92%.

And the IC50 (HCC38; HCC38, read-out: IC50 log10 (μM) (converted))?
The IC50 was 0.0589 µM.

What about the “Maximum Kill Percent” value (BT20; BT20, Exp. 4, single agent) of the same compound?
The value was 100%.

What about the IC50 (BT20; [7]) of the same compound?
Its IC50 is 28.2 µM.

And the IC50 (HCC1187)?
Its IC50 is 191 µM.

What about the “Maximum Kill Percent” value (HCC1954; HCC1954, Exp. 4, single agent) of the same compound?
Its value is 100%.

What about the IC50 (HCC1954; HCC1954, read-out: IC50 log10 (μM) (converted)) of the same compound?
The IC50 was 4370 µM.

What about the IC50 (SUM159PT; [8]) of the same compound?
The IC50 was 0.0933 µM.

And the “Maximum Kill Percent” value (SUM159PT; SUM159PT, Exp. 4, single agent)?
Its value is 94%.

And the EC50 (PAR)?
Its EC50 is 0.0025 µM.

What about the “inhibition of PARG” value (PARG) of the same compound?
The value was “does not inhibit”.

With CNCc1ccc(-c2[nH]c3cc(F)cc4c3c2CCNC4=O)cc1 [Rucaparib] as the compound, how does the Estimated tumor range (Estimated tumor range) read?
Its Estimated tumor range is under 6 µM.

And the “growth inhibition of the cancer cells in combination with SN-38” value [3]?
The value was “additive/synergistic growth inhibition”.

And the “Maximum Kill Percent” value (HCC38; HCC38, Exp. 3, single agent)?
Its value is 87%.

And the IC50 (HCC38; HCC38, Exp. 3, single agent, read-out: IC50 log10 (converted))?
The IC50 was 0.851 µM.

And the “Maximum Kill Percent” value (BT20; BT20, Exp. 3, single agent)?
The value was 100%.

What about the IC50 (BT20; BT-20, BT20, Exp. 3, single agent, read-out: IC50 log10 (converted)) of the same compound?
The IC50 was 18.6 µM.

What about the “Maximum Kill Percent” value (SUM149PT; Exp. 3, single agent) of the same compound?
Its value is 99%.

What about the IC50 (SUM149PT; Exp. 3, single agent, read-out: IC50 log10 (converted)) of the same compound?
Its IC50 is 47.9 µM.

What about the “Maximum Kill Percent” value (HCC1954; HCC1954, Exp. 3, single agent) of the same compound?
Its value is 100%.

What about the IC50 (HCC1954; HCC1954, Exp. 3, single agent, read-out: IC50 log10 (converted)) of the same compound?
Its IC50 is 39.8 µM.

What about the IC50 (SUM159PT; SUM159PT, Exp. 3, single agent, read-out: IC50 log10 (converted)) of the same compound?
The IC50 was 0.851 µM.

What about the “Maximum Kill Percent” value (SUM159PT; SUM159PT, Exp. 3, single agent) of the same compound?
Its value is 97%.

And the “Maximum Kill Percent” value (BT549; BT549, Exp. 3, single agent)?
The value was 100%.

And the IC50 (BT549; BT-549, BT549, Exp. 3, single agent, read-out: IC50 log10 (converted))?
The IC50 was 56.2 µM.

And the EC50 (PAR)?
The EC50 was 0.0047 µM.

What about the “Active Range based on XTC008” value (cancer cells; (Panc)) of the same compound?
The value was 1 to 100 nM.

What about the “sensitivity of cells to combination with SN-38” value [4] of the same compound?
Its value is “very sensitive”.

And the “effect of combination with SN-38” value [5]?
Its value is “Additive/synergistic effects”.

And the “effect of combination with SN-38” value [6]?
Its value is “Additive/synergistic effects”.

What does the source list for O=C(c1cc(Cc2n[nH]c(=O)c3ccccc23)ccc1F)N1CCN(C(=O)C2CC2)CC1 [Olaparib]?
less effective against tankyrase-1 than against PARP 1/2 (tankyrase-1): 300 times; Estimated tumor range (Estimated tumor range): 8 µM; growth inhibition of the cancer cells in combination with SN-38 [3]: additive/synergistic growth inhibition; IC50 (BT20; [7]): 17.4 µM; IC50 (SUM149PT; [8]): 251 µM; IC50 (HCC1187): 257 µM; IC50 (SUM159PT; [8]): 1.51 µM; IC50 (BT549; BT-549, read-out: IC50 log10 (μM) (converted)): 110 µM; EC50 (PAR): 0.0036 µM; sensitivity of cells to combination with SN-38 [4]: very sensitive; effect of combination with SN-38 [5]: Additive/synergistic effects; effect of combination with SN-38 [6]: Additive/synergistic effects
